Consider 13 compounds from patent US20240101576A1, “HETEROCYCLIC INHIBITORS OF EGFR AND/OR HER2, FOR USE IN THE TREATMENT OF CANCER” (Scorpion Therapeutics, Inc., priority 2020, published 2024).

The term IC50 denotes the concentration that inhibits the measured activity by half.

What all share (type): cell-based
One experiment has as its target T1, EGFR WT (Ba/F3 cells) (Homo sapiens, UniProt P00533).
T1 construct: expressed in transfected cells; host or cells: Ba/F3 (murine pro-B cells), retroviral transduction, puromycin selection, maintained with EGF
In words: Inhibitor activity on EGFR-dependent cell growth (CellTiter-Glo, 72 h), Ba/F3 EGFR WT. The settings on record: read-out: BaF3 WT IC50. In a few lines:
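This growth assay used Ba/F3 cells that depend on wild-type EGFR and are kept in EGF without IL3. Compounds were made up as 10 mM DMSO stocks and diluted 3-fold over 10 points. 120 nL went onto 600 cells/well. After 72 hours, 40 μL CellTiter-Glo was added and luminescence read on EnVision after 30 min.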
(In ATP-based viability assays light output follows the ATP content of the culture.)

The target of experiment [1] is T2, EGFR exon 20 SVD Ins D770_N771 (Ba/F3 cells) (Homo sapiens, UniProt P00533, INS770SVD).
T2 construct: expressed in transfected cells; host or cells: Ba/F3 (murine pro-B cells), retroviral transduction, puromycin selection, IL3-independent pool
T2 sequence (P00533 with tags, fused parts or gaps INS770SVD): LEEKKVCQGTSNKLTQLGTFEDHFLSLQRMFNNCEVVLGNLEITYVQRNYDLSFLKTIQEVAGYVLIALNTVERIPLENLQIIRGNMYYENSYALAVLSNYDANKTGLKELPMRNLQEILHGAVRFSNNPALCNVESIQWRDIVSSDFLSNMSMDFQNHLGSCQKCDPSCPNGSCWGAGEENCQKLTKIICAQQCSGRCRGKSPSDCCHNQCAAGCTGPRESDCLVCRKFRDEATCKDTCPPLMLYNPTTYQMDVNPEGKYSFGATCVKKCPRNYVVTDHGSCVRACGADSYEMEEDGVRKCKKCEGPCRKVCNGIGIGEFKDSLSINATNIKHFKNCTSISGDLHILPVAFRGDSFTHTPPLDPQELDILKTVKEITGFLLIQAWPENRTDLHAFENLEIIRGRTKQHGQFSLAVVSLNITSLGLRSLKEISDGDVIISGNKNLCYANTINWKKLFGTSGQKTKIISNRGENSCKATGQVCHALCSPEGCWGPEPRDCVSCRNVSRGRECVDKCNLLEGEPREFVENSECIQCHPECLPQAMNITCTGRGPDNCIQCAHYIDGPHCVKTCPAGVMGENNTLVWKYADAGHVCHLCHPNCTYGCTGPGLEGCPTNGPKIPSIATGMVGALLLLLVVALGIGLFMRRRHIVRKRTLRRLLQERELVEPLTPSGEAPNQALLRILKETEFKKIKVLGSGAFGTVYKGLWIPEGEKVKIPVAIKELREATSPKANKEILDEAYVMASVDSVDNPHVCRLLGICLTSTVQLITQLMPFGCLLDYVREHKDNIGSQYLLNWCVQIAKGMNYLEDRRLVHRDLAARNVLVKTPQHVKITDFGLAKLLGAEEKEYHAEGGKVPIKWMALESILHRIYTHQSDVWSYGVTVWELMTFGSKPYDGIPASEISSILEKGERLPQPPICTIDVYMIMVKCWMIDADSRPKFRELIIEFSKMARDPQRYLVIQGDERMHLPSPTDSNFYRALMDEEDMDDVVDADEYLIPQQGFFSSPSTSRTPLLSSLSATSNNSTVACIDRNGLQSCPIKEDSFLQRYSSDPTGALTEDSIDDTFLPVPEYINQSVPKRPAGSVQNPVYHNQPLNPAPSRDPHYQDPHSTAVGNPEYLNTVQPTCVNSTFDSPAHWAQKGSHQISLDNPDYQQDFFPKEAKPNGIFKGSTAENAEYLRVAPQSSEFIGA
Kind of experiment: Inhibitor activity on EGFR-dependent cell growth (CellTiter-Glo, 72 h), Ba/F3 EGFR exon 20 SVD Ins. The settings on record: read-out: BaF3 SVD IC50. In a few lines: (§1)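 IC50s derive from a sigmoidal dose–response fit of CellTiter-Glo signal. The signal was normalised between […]-treated cells and cell-free medium. Ba/F3 mutant-EGFR cells, seeded at 400–800/well depending on the line, had 72 h of exposure to a 10-point, 3-fold compound series.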

Experiment [2] addresses T3, EGFR exon 20 ASV Ins V769_D770 (Ba/F3 cells) (Homo sapiens, UniProt P00533, INS769ASV).
T3 construct: expressed in transfected cells; host or cells: Ba/F3 (murine pro-B cells), retroviral transduction, puromycin selection, IL3-independent pool
In words: Inhibitor activity on EGFR-dependent cell growth (CellTiter-Glo, 72 h), Ba/F3 EGFR exon 20 ASV Ins. As to conditions: read-out: BaF3 ASV IC50. In a few lines: as §1

A further experiment concerns the target T4, EGFR L858R (Ba/F3 cells) (Homo sapiens, UniProt P00533, L858R).
T4 construct: expressed in transfected cells; host or cells: Ba/F3 (murine pro-B cells), retroviral transduction, puromycin selection, IL3-independent pool
Kind of experiment: Inhibitor activity on EGFR-dependent cell growth (CellTiter-Glo, 72 h), Ba/F3 EGFR L858R. As to conditions: read-out: BaF3 L858R IC50. From the text:
(§2) Example A. Inhibitor Activity on EGFR-Dependent Cell Growth
(§3) Cell lines are generated by transducing Ba/F3 cells with retroviruses containing vectors with EGFR WT, EGFR L858R, EGFR exon 19del, EGFR L858R/C797S, EGFR exon 20 NPG Ins D770_N771, EGFR exon 20 ASV Ins V769_D770, EGFR exon 20 SVD Ins D770_N771, or EGFR exon 20 FQEA Ins A763_V764 genes and a puromycin selection marker. Transduced cells are selected with puromycin for 7 days and are then be transferred into culture media without Interleukin 3 (IL3). EGFR WT cells are maintained with supplemental EGF. Surviving cells are confirmed to express EGFR by Western blot and maintained as a pool. The IC50 date were included in Table 6 and Table 7.
(§4) 1.1 Cells are harvested from flask into cell culture medium and the cell number counted.
(§5) 1.2 Cells are diluted with culture medium to the desired density and 40 μL of cell suspension is added into each well of 384-well cell culture plate and the seeding density is 800 (FQEA, exon 19del), 600 (WT, NPG, L858R/C797S), or 400 (ASV, SVD, L858R) cells/well.
(§6) 2 Compound Preparation and Treatment
(§7) 2.1 Test compounds are dissolved to 10 mM in a DMSO stock solution. 45 μL of stock solution is transferred to a 384 polypropylene plate (pp-plate). Perform 3-fold, 10-point dilution via transferring 15 μL compound into 30 μL DMSO using a TECAN (EVO200) liquid handler.
(§8) 2.2 Spin plates at room temperature at 1,000 RPM for 1 minute.
(§9) 2.3 Transfer 120 nL of diluted compound from compound source plate into the cell plate.
(§10) 2.4 After compound treatment for 72 hours, perform CTG detection for compound treatment plates as described in “Detection” section.
(§11) 3.1 Plates are removed from incubators and equilibrated at room temperature for 15 minutes.
(§12) 3.2 Thaw the CellTiter Glo reagents and allow to equilibrate to room temperature before the experiment.
(§13) 3.3 Add 40 μL of CellTiter-Glo reagent into each well (at 1:1 to culture medium). Then place the plates at room temperature for 30 min followed by reading on EnVision.
(§14) 4.1 Inhibition activity is calculated following the formula below:
(§15) % Inhibition=100×(LumHC−LumSample)/(LumHC−LumLC) • where HC is obtained from cells treated with 0.1% DMSO only; and LC is obtained from culture medium only.
(§16) 4.2 2. Calculate the IC50 by fitting the Curve using Xlfit (v5.3.1.3), equation 201.
(§17) Y=Bottom+(Top−Bottom)/(1+10^((Log IC50−X)*HillSlope))

The target of experiment [3] is EGFR exon 19del (Ba/F3 cells) (Homo sapiens, UniProt P00533). Kind of experiment: Inhibitor activity on EGFR-dependent cell growth (CellTiter-Glo, 72 h), Ba/F3 EGFR exon 19del. The settings on record: Ba/F3 EGFR exon 19del cell growth, read-out: BaF3 Del19 IC50.
Excerpt: as §2, §3, §4, §5, §6, §7, §8, §9, §10, §11, §12, §13, §14, §15, §16, §17

In experiment [4] the target is T5, EGFR exon 20 FQEA Ins A763_V764 (Ba/F3 cells) (Homo sapiens, UniProt P00533, INS763FQEA).
T5 construct: expressed in transfected cells; host or cells: Ba/F3 (murine pro-B cells), retroviral transduction, puromycin selection, IL3-independent pool
Kind of experiment: Inhibitor activity on EGFR-dependent cell growth (CellTiter-Glo, 72 h), Ba/F3 EGFR exon 20 FQEA Ins. As to conditions: read-out: BaF3 FQEA IC50. In a few lines: as §1

The target in experiment [5] is T6, EGFR exon 20 NPG Ins D770_N771 (Ba/F3 cells) (Homo sapiens, UniProt P00533, INS770NPG).
T6 construct: expressed in transfected cells; host or cells: Ba/F3 (murine pro-B cells), retroviral transduction, puromycin selection, IL3-independent pool
T6 sequence (P00533 with tags, fused parts or gaps INS770NPG): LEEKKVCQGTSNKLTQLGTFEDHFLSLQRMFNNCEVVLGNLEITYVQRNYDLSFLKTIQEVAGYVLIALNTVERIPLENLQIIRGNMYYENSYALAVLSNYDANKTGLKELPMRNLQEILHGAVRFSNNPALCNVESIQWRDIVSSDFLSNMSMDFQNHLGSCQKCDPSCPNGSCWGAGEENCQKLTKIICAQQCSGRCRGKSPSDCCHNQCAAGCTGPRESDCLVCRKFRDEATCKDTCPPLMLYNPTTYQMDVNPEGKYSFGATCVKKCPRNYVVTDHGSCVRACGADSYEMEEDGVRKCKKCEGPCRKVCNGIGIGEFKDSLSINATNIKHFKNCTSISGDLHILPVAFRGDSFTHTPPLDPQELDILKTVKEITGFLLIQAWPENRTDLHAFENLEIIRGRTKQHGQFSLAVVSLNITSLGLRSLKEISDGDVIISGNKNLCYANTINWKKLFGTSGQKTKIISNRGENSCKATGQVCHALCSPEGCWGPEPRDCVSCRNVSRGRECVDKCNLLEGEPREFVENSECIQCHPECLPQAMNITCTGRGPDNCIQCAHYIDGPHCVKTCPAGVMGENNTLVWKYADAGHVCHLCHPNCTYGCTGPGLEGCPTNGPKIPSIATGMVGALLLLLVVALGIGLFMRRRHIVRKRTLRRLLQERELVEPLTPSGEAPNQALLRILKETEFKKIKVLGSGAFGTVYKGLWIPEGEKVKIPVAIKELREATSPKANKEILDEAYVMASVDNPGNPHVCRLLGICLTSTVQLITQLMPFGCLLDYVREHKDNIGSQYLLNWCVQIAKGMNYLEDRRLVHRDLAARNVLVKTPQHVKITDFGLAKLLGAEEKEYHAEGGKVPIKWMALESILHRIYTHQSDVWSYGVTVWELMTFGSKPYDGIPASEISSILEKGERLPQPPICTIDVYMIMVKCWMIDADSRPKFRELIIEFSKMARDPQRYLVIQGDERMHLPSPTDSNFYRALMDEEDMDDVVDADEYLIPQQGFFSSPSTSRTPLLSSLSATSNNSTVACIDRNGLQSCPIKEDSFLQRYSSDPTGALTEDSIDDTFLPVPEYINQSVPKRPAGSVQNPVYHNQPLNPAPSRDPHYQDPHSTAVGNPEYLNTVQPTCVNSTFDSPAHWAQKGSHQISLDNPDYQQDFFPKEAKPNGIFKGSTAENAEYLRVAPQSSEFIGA
Kind of experiment: Inhibitor activity on EGFR-dependent cell growth (CellTiter-Glo, 72 h), Ba/F3 EGFR exon 20 NPG Ins. As to conditions: read-out: BaF3 NPG IC50. In a few lines: as §1

Experiment [6] concerns the target T6, EGFR exon 20 NPG Ins D770_N771 (Ba/F3 cells). Kind of experiment: Inhibitor activity on EGFR phosphorylation (pEGFR AlphaLISA, 2 h), Ba/F3 EGFR exon 20 NPG Ins. In a few lines: (§18)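 IL3-independent Ba/F3 cells transduced with mutant EGFR (50K/well) or CUTO14 cells (12.5K/well) were treated 2 h with 10-point, 3-fold compound dilutions. Phospho-EGFR in lysates was measured by AlphaLISA to derive IC50.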
(Alpha assays give light when donor and acceptor beads are brought close together.)

Experiment [7] concerns the target T3, EGFR exon 20 ASV Ins V769_D770 (Ba/F3 cells). Kind of experiment: Inhibitor activity on EGFR phosphorylation (pEGFR AlphaLISA, 2 h), Ba/F3 EGFR exon 20 ASV Ins. The settings on record: EGFR phosphorylation, AlphaLISA, 2 hours; read-out: ASV IC50 (pEGFR). In a few lines:
as §18

Molecules are shown by their SMILES.

T3 sequence (P00533 with tags, fused parts or gaps INS769ASV): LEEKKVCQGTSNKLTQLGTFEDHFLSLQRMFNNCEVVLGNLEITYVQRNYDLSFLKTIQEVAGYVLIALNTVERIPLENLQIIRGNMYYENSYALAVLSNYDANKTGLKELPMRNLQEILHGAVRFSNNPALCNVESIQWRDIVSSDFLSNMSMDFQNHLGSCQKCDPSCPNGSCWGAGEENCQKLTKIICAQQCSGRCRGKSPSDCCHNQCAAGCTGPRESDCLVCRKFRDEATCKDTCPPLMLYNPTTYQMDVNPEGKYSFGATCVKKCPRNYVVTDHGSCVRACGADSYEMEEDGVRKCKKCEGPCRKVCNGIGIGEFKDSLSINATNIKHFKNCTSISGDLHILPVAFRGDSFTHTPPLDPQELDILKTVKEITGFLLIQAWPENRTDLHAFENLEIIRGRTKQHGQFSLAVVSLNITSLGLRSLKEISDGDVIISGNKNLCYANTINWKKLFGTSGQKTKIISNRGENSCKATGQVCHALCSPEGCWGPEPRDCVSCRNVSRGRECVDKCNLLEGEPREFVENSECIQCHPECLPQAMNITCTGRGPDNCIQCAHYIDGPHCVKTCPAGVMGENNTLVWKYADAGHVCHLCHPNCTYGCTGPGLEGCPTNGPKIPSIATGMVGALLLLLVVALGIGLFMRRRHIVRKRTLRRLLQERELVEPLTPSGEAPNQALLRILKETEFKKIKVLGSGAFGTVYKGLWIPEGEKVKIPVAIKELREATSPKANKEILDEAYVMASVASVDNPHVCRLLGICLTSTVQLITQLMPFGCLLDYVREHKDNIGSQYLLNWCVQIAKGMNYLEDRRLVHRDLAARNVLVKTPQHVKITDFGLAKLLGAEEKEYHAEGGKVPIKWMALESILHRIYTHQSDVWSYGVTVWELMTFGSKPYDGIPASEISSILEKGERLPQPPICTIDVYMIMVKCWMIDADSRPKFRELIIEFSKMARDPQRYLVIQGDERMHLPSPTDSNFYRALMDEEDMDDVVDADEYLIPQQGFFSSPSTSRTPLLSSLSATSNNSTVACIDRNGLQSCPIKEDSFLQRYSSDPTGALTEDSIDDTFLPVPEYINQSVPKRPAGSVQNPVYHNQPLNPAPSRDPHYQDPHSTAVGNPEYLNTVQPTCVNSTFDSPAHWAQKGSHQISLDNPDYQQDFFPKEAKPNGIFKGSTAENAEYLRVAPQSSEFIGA
T1 sequence (P00533 25-1210): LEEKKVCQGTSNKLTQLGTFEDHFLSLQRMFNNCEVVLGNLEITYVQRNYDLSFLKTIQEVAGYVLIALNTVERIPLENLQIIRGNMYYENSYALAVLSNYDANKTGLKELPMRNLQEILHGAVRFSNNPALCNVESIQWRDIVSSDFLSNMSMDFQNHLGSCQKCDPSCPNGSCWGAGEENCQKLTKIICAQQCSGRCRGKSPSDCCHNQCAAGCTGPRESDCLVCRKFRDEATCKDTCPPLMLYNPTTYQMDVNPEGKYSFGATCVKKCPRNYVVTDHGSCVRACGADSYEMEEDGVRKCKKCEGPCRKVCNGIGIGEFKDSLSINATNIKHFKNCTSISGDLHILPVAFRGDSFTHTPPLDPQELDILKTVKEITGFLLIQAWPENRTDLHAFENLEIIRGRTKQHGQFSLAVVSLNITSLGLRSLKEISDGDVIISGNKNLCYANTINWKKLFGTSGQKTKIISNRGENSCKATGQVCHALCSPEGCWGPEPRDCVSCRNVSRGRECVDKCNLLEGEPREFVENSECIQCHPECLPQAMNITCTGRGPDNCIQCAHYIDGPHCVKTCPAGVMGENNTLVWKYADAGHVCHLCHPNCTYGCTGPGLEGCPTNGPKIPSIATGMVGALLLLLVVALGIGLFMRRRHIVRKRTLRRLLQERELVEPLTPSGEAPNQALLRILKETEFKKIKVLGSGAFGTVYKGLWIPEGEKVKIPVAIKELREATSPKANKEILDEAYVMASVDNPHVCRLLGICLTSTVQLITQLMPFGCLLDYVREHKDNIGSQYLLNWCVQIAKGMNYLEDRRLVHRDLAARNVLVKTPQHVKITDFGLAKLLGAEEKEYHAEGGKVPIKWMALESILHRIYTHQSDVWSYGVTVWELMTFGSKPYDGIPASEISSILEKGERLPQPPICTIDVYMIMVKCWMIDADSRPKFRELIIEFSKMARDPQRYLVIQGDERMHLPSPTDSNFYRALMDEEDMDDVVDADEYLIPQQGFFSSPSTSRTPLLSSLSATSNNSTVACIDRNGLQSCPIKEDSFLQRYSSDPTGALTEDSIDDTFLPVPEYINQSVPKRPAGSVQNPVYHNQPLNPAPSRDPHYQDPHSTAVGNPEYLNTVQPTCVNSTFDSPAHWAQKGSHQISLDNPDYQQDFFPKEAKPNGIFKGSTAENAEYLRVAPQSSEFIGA

Consider `CC[C@@H]1CNC(=O)c2c1[nH]c(-c1ccnc(N)n1)c2Nc1cccc(Cl)c1OC` [189a], for which the IC50 at EGFR WT (Ba/F3 cells) is 100 to 1000 nM; in experiment [1], less than 100 nM; in [2], less than 100 nM; at EGFR L858R (Ba/F3 cells), less than 100 nM; in [3] it was less than 100 nM; in experiment [4], less than 100 nM. Besides, in experiment [5], the IC50 was less than 100 nM.

Take `Cc1ccc2nccc(-c3[nH]c4c(c3Nc3cccc(F)c3C)C(=O)NCC4)c2n1` [Compound 810, 3-[(3-fluoro-2-methylphenyl)amino]-2-(6-methyl-1,5-naphthyridin-4-yl)-1H,5H,6H,7H-pyrrolo[3,2-c]pyridin-4-one]: the IC50 on EGFR WT (Ba/F3 cells) was 100 to 1000 nM; in [1], less than 100 nM; in experiment [2], less than 100 nM; at EGFR L858R (Ba/F3 cells), less than 100 nM; in [3] it was less than 100 nM; in [4], less than 100 nM.

On to `COc1ccc2nccc(-c3[nH]c4c(c3Nc3cccc(Cl)c3OC)C(=O)NC[C@H]4C)c2n1` [310a], for which the IC50 (on EGFR WT (Ba/F3 cells); in experiment [1]; in experiment [2]; on EGFR L858R (Ba/F3 cells); in experiment [3]; in [4]) was less than 100 nM each time. In addition, the IC50 in experiment [5] is less than 100 nM.

With `COCC[C@@H]1CNC(=O)c2c1[nH]c(-c1ccnc(C)n1)c2Nc1cccc(F)c1OC` [453a], the IC50 on EGFR WT (Ba/F3 cells) is more than 1000 nM; in experiment [1], 100 to 1000 nM; in [2], 100 to 1000 nM; on EGFR L858R (Ba/F3 cells), less than 100 nM; in [3], less than 100 nM; in [5], 100 to 1000 nM.

In the case of `COc1c(F)cccc1Nc1c(-c2ccnc3ccoc23)[nH]c2c1C(=O)NCC2` [Compound 553, 3-[(3-fluoro-2-methoxyphenyl)amino]-2-{furo[3,2-b]pyridin-7-yl}-1H,5H,6H,7H-pyrrolo[3,2-c]pyridin-4-one], the IC50 is 100 to 1000 nM on EGFR WT (Ba/F3 cells); less than 100 nM in experiment [1]; less than 100 nM in experiment [2]; less than 100 nM on EGFR L858R (Ba/F3 cells); less than 100 nM in experiment [3]; less than 100 nM in experiment [4].

With `COCCC1(C)CNC(=O)c2c1[nH]c(-c1ccncc1F)c2Nc1cccc(Cl)c1OC` (single isomer, unassigned) [Compound 779], the concentration for half-maximal inhibition (IC50) at EGFR WT (Ba/F3 cells) is […]; in experiment [2] it was […]; at EGFR L858R (Ba/F3 cells), […]; in experiment [3] it was […]; in experiment [4], […]; in [5] it was […].

Regarding `COCC[C@@H]1CNC(=O)c2c1[nH]c(-c1ccncc1F)c2Nc1cccc(F)c1C` [compound 823], the IC50 (at EGFR WT (Ba/F3 cells); in experiment [1]; in [2]; on EGFR L858R (Ba/F3 cells); in experiment [3]; in experiment [4]) was less than 100 nM throughout.

Turning to `COCc1ccc2nccc(-c3[nH]c4c(c3Nc3cccc(Cl)c3OC)C(=O)NCC4)c2n1` [compound 679, 3-[(3-chloro-2-methoxyphenyl)amino]-2-[6-(methoxymethyl)-1,5-naphthyridin-4-yl]-1H,5H,6H,7H-pyrrolo[3,2-c]pyridin-4-one], the IC50 (at EGFR WT (Ba/F3 cells); in experiment [1]; in experiment [2]; on EGFR L858R (Ba/F3 cells); in experiment [3]; in [4]) was less than 100 nM in each case. Moreover, in experiment [5], the IC50 was less than 100 nM.

Regarding `CCO[C@@H](C)c1ccc2nccc(-c3[nH]c4c(c3Nc3cccc(Cl)c3OC)C(=O)NCC4)c2n1` [compound 754, 3-[(3-chloro-2-methoxyphenyl)amino]-2-[6-[(1S)-1-ethoxyethyl]-1,5-naphthyridin-4-yl]-1H,5H,6H,7H-pyrrolo[3,2-c]pyridin-4-one; trifluoroacetic acid], the IC50 (at EGFR WT (Ba/F3 cells); in experiment [1]; in experiment [2]; on EGFR L858R (Ba/F3 cells); in experiment [3]; in experiment [4]) was less than 100 nM throughout. Further, the IC50 in experiment [5] is less than 100 nM.

Turning to `COc1c(Cl)cccc1Nc1c(-c2ccnc(NC(C)=O)n2)[nH]c2c1C(=O)NCC2` [compound 220], the IC50 in experiment [6] is less than 100 nM; on EGFR WT (Ba/F3 cells), more than 1000 nM; in [1] it was 100 to 1000 nM; in experiment [2], 100 to 1000 nM; in [4] it was 100 to 1000 nM; in [5], 100 to 1000 nM. In addition, the IC50 in [7] is 100 to 1000 nM.

For the compound `COCCOc1ccc2nccc(-c3[nH]c4c(c3Nc3cccc(Cl)c3OC)C(=O)NCC4)c2n1` [compound 678, 3-[(3-chloro-2-methoxyphenyl)amino]-2-[6-(2-methoxyethoxy)-1,5-naphthyridin-4-yl]-1H,5H,6H,7H-pyrrolo[3,2-c]pyridin-4-one], the IC50 (in experiment [6]; at EGFR WT (Ba/F3 cells); in [1]; in experiment [2]; in experiment [4]; in [5]) was less than 100 nM each time. Besides, the IC50 in experiment [7] is less than 100 nM.

For the compound `COc1c(Cl)cccc1Nc1c(-c2ccnc(Nc3cnn(C)c3)n2)[nH]c2c1C(=O)NCC2` [compound 109], the IC50 (in [6]; on EGFR WT (Ba/F3 cells); in experiment [1]; in [2]; in experiment [4]; in experiment [5]) was less than 100 nM each time. Besides, the IC50 in [7] was less than 100 nM.

With `CNc1nccc(-c2[nH]c3c(c2Nc2cccc(Cl)c2OC)C(=O)NCC3)n1` [compound 108], the IC50 in experiment [6] was less than 100 nM; on EGFR WT (Ba/F3 cells), 100 to 1000 nM; in [1] it was less than 100 nM; in [2] it was less than 100 nM; in experiment [4], 100 to 1000 nM; in experiment [5], less than 100 nM. Moreover, in experiment [7], the IC50 was less than 100 nM.
